According to US12145944B2, “Imidazopyrimidines as EED inhibitors and the use thereof” (THE REGENTS OF THE UNIVERSITY OF MICHIGAN, priority 2019, dated 2024):

Experiments:
[1] = tested on: Pfeiffer cell line; test: Anti-proliferative activity, Pfeiffer cell line, 7 day treatment; format: cell-based; settings: Homo sapiens, 168 h; anti-proliferative IC50, Pfeiffer cell line, 7 day treatment; read-out: Pfeiffer Cell line
Outline: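 Cells seeded at 2 000-3 000 per well were treated with serially diluted compounds for 7 days at 37° C, 5% CO2. Growth was measured by WST-8 assay read at 450 nm after 1-4 h reagent incubation. Readings were normalized to DMSO-treated cells and IC50 values derived by nonlinear regression.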

[2] = tested on: KARPAS422 human B cell lymphoma cell; test: Cell proliferation, KARPAS422, 7 day treatment (WST-8); format: cell-based; settings: Homo sapiens, KARPAS-422, 168 h, anti-proliferative IC50, Karpas 422 cell line, 7 day treatment; read-out: Karpas Cell line
Outline: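 Read-out was WST-8 absorbance at 450 nm after 1-4 h with reagent, taken after 7-day compound treatment (serial dilutions, 37 °C, 5% CO2) of 2 000-3 000 KARPAS422 cells per well. IC50 fitted by nonlinear regression on DMSO-normalized values.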

Compound	IC50 [1] [nM]	IC50 [2] [nM]
Cc1ccc2c(n1)COC(=O)c1ncn3c(NCc4c(F)ccc5c4CCO5)ncc-2c13 [compound 18, 12-(((5-fluoro-2,3-dihydrobenzofuran-4-yl)methyl)amino)-7-methyl-3H,5H-4-oxa-2,6,11,12a-tetraazabenzo[4,5]cycloocta[1,2,3-cd]inden-3-one]	0.73	15.3
O=C1OCc2cc(C(F)(F)F)ccc2-c2cnc(NCc3cccc4c3OCO4)n3cnc1c23 [compound 27, 12-((benzo[d][1,3]dioxol-4-ylmethyl)amino)-7-(trifluoromethyl)-3H,5H-4-oxa-2,11,12a-triazabenzo[4,5]cycloocta[1,2,3-cd]inden-3-one]	> 100	> 100
COc1cccc(F)c1CNc1ncc2c3c(ncn13)C(=O)OCc1cc(C(F)(F)F)ccc1-2 [compound 28, 12-((2-fluoro-6-methoxybenzyl)amino)-7-(trifluoromethyl)-3H,5H-4-oxa-2,11,12a-triazabenzo[4,5]cycloocta[1,2,3-cd]inden-3-one]	> 100	> 100
CN1Cc2cc(C(F)(F)F)ncc2-c2cnc(NCc3c(F)ccc4c3CCO4)n3cnc(c23)C1=O [compound 34, 12-(((5-fluoro-2,3-dihydrobenzofuran-4-yl)methyl)amino)-4-methyl-7-(trifluoromethyl)-4,5-dihydro-3H-2,4,8,11,12a-pentaazabenzo[4,5]cycloocta[1,2,3-cd]inden-3-one]	0.35	2.64
O=C1c2ncn3c(NCc4c(F)ccc5c4CCO5)ncc(c23)-c2ccc(C(F)(F)F)nc2CN1CC1COCCO1 (stereo not shown) [compound 35, 4-((1,4-dioxan-2-yl)methyl)-12-(((5-fluoro-2,3-dihydrobenzofuran-4-yl)methyl)amino)-7-(trifluoromethyl)-4,5-dihydro-3H-2,4,6,11,12a-pentaazabenzo[4,5]cycloocta[1,2,3-cd]inden-3-one]	0.12	1.23
O=C1c2ncn3c(NCc4c(F)ccc5c4CCO5)ncc(c23)-c2cnc(C(F)(F)F)cc2CN1CC1COCCO1 (stereo not shown) [compound 37, 4-((1,4-dioxan-2-yl)methyl)-12-(((5-fluoro-2,3-dihydrobenzofuran-4-yl)methyl)amino)-7-(trifluoromethyl)-4,5-dihydro-3H-2,4,8,11,12a-pentaazabenzo[4,5]cycloocta[1,2,3-cd]inden-3-one]	0.25	1.79
CN1CCC(CN2Cc3cc(C(F)(F)F)ncc3-c3cnc(NCc4c(F)ccc5c4CCO5)n4cnc(c34)C2=O)CC1 [compound 38, 12-(((5-fluoro-2,3-dihydrobenzofuran-4-yl)methyl)amino)-4-((1-methylpiperidin-4-yl)methyl)-7-(trifluoromethyl)-4,5-dihydro-3H-2,4,8,11,12a-pentaazabenzo[4,5]cycloocta[1,2,3-cd]inden-3-one]	3.22	15.7
CN1Cc2ccc(C(F)(F)F)nc2-c2cnc(NCc3c(F)ccc4c3CCO4)n3cnc(c23)C1=O [compound 39, 12-(((5-fluoro-2,3-dihydrobenzofuran-4-yl)methyl)amino)-4-methyl-8-(trifluoromethyl)-4,5-dihydro-3H-2,4,9,11,12a-pentaazabenzo[4,5]cycloocta[1,2,3-cd]inden-3-one]	22.7	> 100
O=C1c2ncn3c(NCc4c(F)ccc5c4CCO5)ncc(c23)-c2nc(C(F)(F)F)ccc2CN1CC1COCCO1 (stereo not shown) [compound 40, 4-((1,4-dioxan-2-yl)methyl)-12-(((5-fluoro-2,3-dihydrobenzofuran-4-yl)methyl)amino)-8-(trifluoromethyl)-4,5-dihydro-3H-2,4,9,11,12a-pentaazabenzo[4,5]cycloocta[1,2,3-cd]inden-3-one]	38.8	> 100
O=C1c2ncn3c(NCc4c(F)ccc5c4CCO5)ncc(c23)-c2ccc(C(F)(F)F)nc2CN1C1CC1 [compound 41, 4-cyclopropyl-12-(((5-fluoro-2,3-dihydrobenzofuran-4-yl)methyl)amino)-7-(trifluoromethyl)-4,5-dihydro-3H-2,4,6,11,12a-pentaazabenzo[4,5]cycloocta[1,2,3-cd]inden-3-one]	1.03	1.69
CN1CCC(CN2Cc3nc(C(F)(F)F)ccc3-c3cnc(NCc4c(F)ccc5c4CCO5)n4cnc(c34)C2=O)CC1 [compound 42, 12-(((5-fluoro-2,3-dihydrobenzofuran-4-yl)methyl)amino)-4-((1-methylpiperidin-4-yl)methyl)-7-(trifluoromethyl)-4,5-dihydro-3H-2,4,6,11,12a-pentaazabenzo[4,5]cycloocta[1,2,3-cd]inden-3-one]	4.19	4.01
O=C1c2ncn3c(NCc4c(F)ccc5c4CCO5)ncc(c23)-c2cnc(C(F)(F)F)cc2CN1CC1(O)CC1 [compound 43, 12-(((5-fluoro-2,3-dihydrobenzofuran-4-yl)methyl)amino)-4-((1-hydroxycyclopropyl)methyl)-7-(trifluoromethyl)-4,5-dihydro-3H-2,4,8,11,12a-pentaazabenzo[4,5]cycloocta[1,2,3-cd]inden-3-one]	1.05	5.46
O=C1c2ncn3c(NCc4c(F)ccc5c4CCO5)ncc(c23)-c2ccc(C(F)(F)F)nc2CN1CC1(O)CC1 [compound 44, 12-(((5-fluoro-2,3-dihydrobenzofuran-4-yl)methyl)amino)-4-((1-hydroxycyclopropyl)methyl)-7-(trifluoromethyl)-4,5-dihydro-3H-2,4,6,11,12a-pentaazabenzo[4,5]cycloocta[1,2,3-cd]inden-3-one]	1.03	2.44

More lines, now with the values ahead:

IC50 [1] [nM]	IC50 [2] [nM]	Compound
0.79	9.6	O=C1NCc2cc(C(F)(F)F)ccc2-c2cnc(NCc3c(F)ccc4c3CCO4)n3cnc1c23 [compound 19, 12-(((5-fluoro-2,3-dihydrobenzofuran-4-yl)methyl)amino)-7-(trifluoromethyl)-4,5-dihydro-3H-2,4,11,12a-tetraazabenzo[4,5]cycloocta[1,2,3-cd]inden-3-one]
0.9	13.9	O=C1NCc2c(F)cccc2-c2cnc(NCc3c(F)ccc4c3CCO4)n3cnc1c23 [compound 20, 6-fluoro-12-(((5-fluoro-2,3-dihydrobenzofuran-4-yl)methyl)amino)-4,5-dihydro-3H-2,4,11,12a-tetraazabenzo[4,5]cycloocta[1,2,3-cd]inden-3-one]
0.61	14.9	Cc1ccc2c(n1)CNC(=O)c1ncn3c(NCc4c(F)ccc5c4CCO5)ncc-2c13 [compound 21, 12-(((5-fluoro-2,3-dihydrobenzofuran-4-yl)methyl)amino)-7-methyl-4,5-dihydro-3H-2,4,6,11,12a-pentaazabenzo[4,5]cycloocta[1,2,3-cd]inden-3-one]
4.88	45.6	O=C1NCc2cc(C(F)(F)F)ncc2-c2cnc(NCc3c(F)ccc4c3CCO4)n3cnc1c23 [compound 22, 12-(((5-fluoro-2,3-dihydrobenzofuran-4-yl)methyl)amino)-7-(trifluoromethyl)-4,5-dihydro-3H-2,4,8,11,12a-pentaazabenzo[4,5]cycloocta[1,2,3-cd]inden-3-one]
9.95	89.2	O=C1NCc2ccc(F)cc2-c2cnc(NCc3c(F)ccc4c3CCO4)n3cnc1c23 [compound 23, 8-fluoro-12-(((5-fluoro-2,3-dihydrobenzofuran-4-yl)methyl)amino)-4,5-dihydro-3H-2,4,11,12a-tetraazabenzo[4,5]cycloocta[1,2,3-cd]inden-3-one]
38.4	> 100	O=C1OCc2ccc(C(F)(F)F)cc2-c2cnc(NCc3c(F)ccc4c3CCO4)n3cnc1c23 [compound 24, 12-(((5-fluoro-2,3-dihydrobenzofuran-4-yl)methyl)amino)-8-(trifluoromethyl)-3H,5H-4-oxa-2,11,12a-triazabenzo[4,5]cycloocta[1,2,3-cd]inden-3-one]
0.29	16.5	O=C1NCc2nc(C(F)(F)F)ccc2-c2cnc(NCc3c(F)ccc4c3CCO4)n3cnc1c23 [compound 25, 12-(((5-fluoro-2,3-dihydrobenzofuran-4-yl)methyl)amino)-7-(trifluoromethyl)-4,5-dihydro-3H-2,4,6,11,12a-pentaazabenzo[4,5]cycloocta[1,2,3-cd]inden-3-one]
32.9	41.4	O=C1NCc2ccc(C(F)(F)F)cc2-c2cnc(NCc3c(F)ccc4c3CCO4)n3cnc1c23 [compound 26, 12-(((5-fluoro-2,3-dihydrobenzofuran-4-yl)methyl)amino)-8-(trifluoromethyl)-4,5-dihydro-3H-2,4,11,12a-tetraazabenzo[4,5]cycloocta[1,2,3-cd]inden-3-one]
11.6	84.4	O=C1OCc2cnc(C(F)(F)F)cc2-c2cnc(NCc3c(F)ccc4c3CCO4)n3cnc1c23 [compound 32, 12-(((5-fluoro-2,3-dihydrobenzofuran-4-yl)methyl)amino)-8-(trifluoromethyl)-3H,5H-4-oxa-2,7,11,12a-tetraazabenzo[4,5]cycloocta[1,2,3-cd]inden-3-one]
0.22	1.11	CN1Cc2nc(C(F)(F)F)ccc2-c2cnc(NCc3c(F)ccc4c3CCO4)n3cnc(c23)C1=O [compound 33, 12-(((5-fluoro-2,3-dihydrobenzofuran-4-yl)methyl)amino)-4-methyl-7-(trifluoromethyl)-4,5-dihydro-3H-2,4,6,11,12a-pentaazabenzo[4,5]cycloocta[1,2,3-cd]inden-3-one]
